# Patent US20180110754A1, “CENICRIVIROC FOR THE TREATMENT OF FIBROSIS” (Tobira Therapeutics, Inc., priority 2015, published 2018)
# What was measured:
# [1] = tested on: thioglycollate-induced peritonitis (monocyte/macrophage and leukocyte recruitment); test: Mouse thioglycollate-induced peritonitis model: peritoneal lavage cell counts, body weight; assay type: in vivo
# Procedure: Summary: The mouse thioglycollate induced peritonitis model is a commonly used preclinical model to assess the recruitment of […] cells and to assess the activation of macrophages.
# Dexamethasone was used as a positive control in this experiment as it is a corticosteroid known to reduce inflammation in a variety of animal models. Murine inflammation models indicate that the effective dose range for dexamethasone, when administered orally, is 0.3 to 3 mg/kg QD. On this basis, an intermediate dose of 1 mg/kg was chosen for this particular study.
# The lavage was repeated with a second injection of 2.5 mL via the initial puncture site and the samples were pooled for each animal.
# The lavage fluid was placed on wet ice pending processing for total and differential cell counts using the Advia analyzer. Following the lavage collection, a blood sample (0.7 mL) was collected from each mouse by intracardiac puncture or from the vena cava (collection time was recorded). 0.5 mL of blood was placed in an EDTA tube, transferred to clinical pathology and analyzed for differential cell counts using the Advia analyzer. 0.2 mL of blood was placed in a K2EDTA tube and processed to plasma. The plasma was collected by centrifugation (3000 rpm for 10 minutes at 4° C.) and placed on dry ice. […] After blood collection, the animals were then exsanguinated by sectioning of the abdominal aorta.
# Statistical Analysis: One-way ANOVA with post-hoc Dunnett's statistical analysis was performed on differential cell counts obtained from lavage and blood samples. The analysis was performed in comparison to Group 2.
# [2] = tested on: HIV-1 BaL; test: Extracellular virus (viral RNA, p24) in culture fluids of PM-1 cells exposed to HIV-1 BaL; assay type: cell-based; details: 4 hrs post-infection, CVC 20 nM, MVC 50 nM
# From the text: Cells. PM-1 cells that express CD4, CCR5, and CXCR4 were maintained in RPMI-1640 medium containing 10% fetal bovine serum (R10 medium) at 37C, 5% CO2. 293T cells used for transfection were maintained in DMEM at 10% FBS, L-glutamine, and antibiotics (D10 medium) at 37C, 5% CO2. Virus Stocks. HIV-1 BaL virus was produced by transfecting 293T cells with the plasmid pWT/BaL. Lipofectamine 2000 was used as a transfection agent. Culture supernatants were collected at 48 hrs post-transfection, filtered through a 0.45 μm pore filter, and treated with 50 units of benzonase per ml of virus stock for 20 minutes at 37C to remove contaminating plasmid DNA. Virus stocks were frozen at −80C to halt benzonase activity. Benzonase-treated virus stocks were propagated in cord blood mononuclear cells (CBMCs). CBMCs were stimulated for 72 h with phytohemagluttinin (PHA-M) in R10 medium prior to infection with HIV-1 BaL. The viral amplification culture was subsequently grown in R10 supplemented with interleukin 2 (IL-2) and incubated at 37C, 5% CO2.
# Both drugs were incubated with PM-1 cells for 1 hr at 37 C prior to the addition of virus. 500 ng of p24 antigen of HIV-1 BaL were incubated per 5×10^5 cells in 1 ml of R10 media. Virus only controls, described as “no cell” in the text, were used to measure viral decay. Viral adsorption was measured in the no-drug controls, whereby 500 ng of p24 Ag of HIV-1 Bal were added per 5×10^5 PM-1 cells that were pre-incubated at 37 C for 1 hr in the absence of drug treatment. Each drug treatment and control was performed in duplicate. Viral RNA was extracted from 140 μl of supernatant fluid using the QIAamp Viral RNA mini kit according to manufacturer's instructions. Samples were stored at −80 C until analysis. Supernatant viral loads were measured using quantitative real-time reverse transcription PCR (qRT-PCR) with the primers US1SSF (5′-[…]-3′), US1SSR (5′-[…]-3′) and US1SS probe (5′-(FAM) […]) and the Invitrogen qRT-PCR Supermix Kit. Cycling parameters were: 50° C. for 15 minutes, 95° C. for 10 minutes, followed by 50 cycles of 95° C. for 15 seconds, and 60° C. for 1 minute. All values are the result of replicate testing over 2 independent experiments. RNA copy number was quantified by use of 10-fold serial dilutions of pBaL/wt to generate standard curves for each assay and calibrated against samples with known copy numbers from previous studies.
# [3] = tested on: HIV-1 BaL; test: Intracellular strong-stop HIV DNA in PM-1 cells infected with HIV-1 BaL; assay type: cell-based; details: 4 hrs, CVC 20 nM, MVC 50 nM
# Procedure: Both drugs were incubated with PM-1 cells for 1 hr at 37 C prior to the addition of virus. 500 ng of p24 antigen of HIV-1 BaL were incubated per 5×10^5 cells in 1 ml of R10 media. Virus only controls, described as “no cell” in the text, were used to measure viral decay. Viral adsorption was measured in the no-drug controls, whereby 500 ng of p24 Ag of HIV-1 Bal were added per 5×10^5 PM-1 cells that were pre-incubated at 37 C for 1 hr in the absence of drug treatment. Each drug treatment and control was performed in duplicate. Viral RNA was extracted from 140 μl of supernatant fluid using the QIAamp Viral RNA mini kit according to manufacturer's instructions. Samples were stored at −80 C until analysis. Supernatant viral loads were measured using quantitative real-time reverse transcription PCR (qRT-PCR) with the primers US1SSF (5′-[…]-3′), US1SSR (5′-[…]-3′) and US1SS probe (5′-(FAM) […]) and the Invitrogen qRT-PCR Supermix Kit. […] RNA copy number was quantified by use of 10-fold serial dilutions of pBaL/wt to generate standard curves for each assay and calibrated against samples with known copy numbers from previous studies.
# Intracellular DNA qPCR. Total DNA was extracted, quantified, and stored at −80 C. Intracellular strong-stop DNA levels were quantified with the US1SS primer/probe set described above. […]
# [4] = molecular target: T1, CCR5 (Homo sapiens, UniProt P51681); test: RANTES-induced CCR5 internalization / CCR5 receptor occupancy in PBMCs (flow cytometry); assay type: cell-based
# T1 sequence (P51681 whole entry): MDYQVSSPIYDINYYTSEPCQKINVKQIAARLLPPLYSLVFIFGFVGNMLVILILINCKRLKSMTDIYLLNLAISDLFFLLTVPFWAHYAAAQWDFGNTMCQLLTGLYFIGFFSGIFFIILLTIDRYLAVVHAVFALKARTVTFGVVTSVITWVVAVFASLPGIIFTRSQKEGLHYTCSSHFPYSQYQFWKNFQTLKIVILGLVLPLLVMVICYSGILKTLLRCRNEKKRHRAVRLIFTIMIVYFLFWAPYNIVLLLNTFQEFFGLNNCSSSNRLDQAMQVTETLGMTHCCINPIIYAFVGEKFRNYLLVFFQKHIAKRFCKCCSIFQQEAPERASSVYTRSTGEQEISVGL
# Procedure: (§1) The capacity of each drug to inhibit CCR5 or CCR2 internalization was evaluated. Cell-surface expression of CCR5 and CCR2 was assessed by flow cytometry, and fluorescence values were converted into molecules of equivalent soluble fluorescence (MESF).
# [5] = molecular target: T1, CCR5; test: Inhibition of chemokine binding to CCR5-expressing CHO cells
# [6] = Solubility of cenicriviroc mesylate in solvents and aqueous solution; assay type: physicochemical
# From the text: In one embodiment, the acid addition salt of cenicriviroc is cenicriviroc mesylate, e.g., (5)-8-[4-(2-Butoxyethoxy)phenyl]-1-isobutyl-N-(4-{[(1-propyl-1H-imidazol-5-yl)methyl]sulfinyl}phenyl)-1,2,3,4-tetrahydro-1-benzazocine-5-carboxamide monomethanesulfonoate. In one embodiment, the cenicriviroc mesylate is a crystalline material, such as a pale greenish-yellow crystalline powder.
# [7] = molecular target: T2, CCR2 (Homo sapiens, UniProt P41597); test: MCP-1-induced CCR2 internalization / CCR2 receptor occupancy on monocytes (flow cytometry); assay type: cell-based
# T2 construct: endogenous in cells; host or cells: monocytes within PBMCs from HIV+ and HIV- subjects
# T2 sequence (P41597 1-360 isoform P41597-2): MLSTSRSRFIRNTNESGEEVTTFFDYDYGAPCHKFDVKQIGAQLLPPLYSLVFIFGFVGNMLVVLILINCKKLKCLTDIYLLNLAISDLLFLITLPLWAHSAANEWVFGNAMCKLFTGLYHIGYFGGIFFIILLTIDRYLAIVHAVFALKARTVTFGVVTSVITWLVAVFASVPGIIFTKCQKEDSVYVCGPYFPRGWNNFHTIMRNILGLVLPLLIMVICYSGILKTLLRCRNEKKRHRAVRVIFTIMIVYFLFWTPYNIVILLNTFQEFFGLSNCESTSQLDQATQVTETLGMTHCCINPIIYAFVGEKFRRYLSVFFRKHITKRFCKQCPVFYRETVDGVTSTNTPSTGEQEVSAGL
# Procedure: as §1
compound,measurement,setting,value
"C[C@@H]1C[C@H]2[C@@H]3CCC4=CC(=O)C=C[C@]4(C)[C@@]3(F)[C@@H](O)C[C@]2(C)[C@@]1(O)C(=O)CO [Dexamethasone, dexamethasone, reference compound]",Decrease in monocytes in peritoneal lavage vs thioglycollate control,"[1]; Group 7, 1 mg/kg oral",38.1%
same,Decrease in total leukocyte counts in peritoneal lavage vs thioglycollate control,"[1]; Group 7, 1 mg/kg oral",26.6%
same,"Body weights, Days 1 to 6","[1]; mouse, in vivo",decreased slightly
"Maraviroc [MVC, reference compound]",p24 antigen level in culture fluids,[2]; baseline 506 ng/ml,520 ng/mL
same,Viral RNA in culture fluids,[2]; baseline 1.19×10^10,1.67×10^10 copies/ml
same,Relative intracellular strong-stop HIV DNA level compared to no drug control,[3],0.02
same,CCR5 receptor occupancy at saturation,[4]; CD4+ T cells,~86%
same,Effective concentration at which saturation of CCR5 was reached,[4]; CD4+ T cells,12.5 nM
same,CCR5 receptor occupancy at saturation,[4]; CD8+ T cells,~87%
same,Effective concentration at which saturation of CCR5 was reached,[4]; CD8+ T cells,12.5 nM
same,Cell-surface expression of CCR5,[4]; in the absence of RANTES,increased cell-surface expression of CCR5
CCCCOCCOc1ccc(-c2ccc3c(c2)C=C(C(=O)Nc2ccc(SC)cc2)CCCN3CC(C)C)cc1 [M-II],"IC50, inhibition of RANTES binding to CCR5-expressing cells",[5]; CHO cells,no effect on binding of RANTES
"(5)-8-[4-(2-Butoxyethoxy)phenyl]-1-isobutyl-N-(4-{[(1-propyl-1H-imidazol-5-yl)methyl]sulfinyl}phenyl)-1,2,3,4-tetrahydro-1-benzazocine-5-carboxamide monomethanesulfonoate [cenicriviroc mesylate]",Solubility,[6]; 99.5% ethanol,sparingly soluble
same,Solubility,"[6]; acetonitrile, 1-octanol, tetrahydrofuran",slightly soluble
same,Solubility,[6]; ethyl acetate and diethylether,practically insoluble
same,Solubility,"[6]; glacial acetic acid, methanol, benzyl alcohol, dimethylsulfoxide, N,N-dimethylformamide",freely soluble
same,Solubility in aqueous solution,[6]; pH 1 to 2,freely soluble
same,Solubility in aqueous solution,[6]; pH 3,sparingly soluble
same,Solubility in aqueous solution,[6]; pH 4 to 13 and in water,practically insoluble
same,Solubility,[6]; pyridine and acetic anhydride,soluble
"CSc1ccc(C(=O)N[C@@H]2CCCC[C@@H]2NC(=O)CNC(=O)c2cc(C(F)(F)F)ccc2NC(=O)NC(C)C)cc1 [BMS-22, reference compound]",Concentration required to reach >80% CCR2 receptor occupancy (average),[7],18 nM
same,CCR2 cell-surface expression,[7]; in the absence of MCP-1,slightly increased CCR2 cell-surface expression
CCCCOCCOc1ccc(-c2ccc3c(c2)C=C(C(=O)Nc2ccc(S(=O)(=O)Cc4cncn4CCC)cc2)CCCN3CC(C)C)cc1 [M-I],IC50 relative to the IC50 of CVC (RANTES binding to CCR5),[5],approximately 2 fold
same,IC50,"[5]; CHO cells, read-out: IC50, inhibition of RANTES binding to CCR5-expressing cells",6.5 nM
